Source: publication PMC10746543, “Design principles for cyclin K molecular glue degraders” (Nature Chemical Biology, 2023)
Several values for one entry are separate records, joined by “and”; a condition that tells them apart may be missing. Equal values may be shown once. Read-outs that look alike come from different tables or passages of the source.

Experiments:
CDK9–cyclin T = target: T1, CDK9–cyclin T (Homo sapiens, UniProt P50750); test: Lanthascreen kinase binding assay, CDK9; settings: for Lanthascreen TR-FRET signal (raw ratio), sheet CDK9: first titration set (r1), duplicates
T1 construct: purchased Thermo Fisher
T1 sequence (P50750 whole entry): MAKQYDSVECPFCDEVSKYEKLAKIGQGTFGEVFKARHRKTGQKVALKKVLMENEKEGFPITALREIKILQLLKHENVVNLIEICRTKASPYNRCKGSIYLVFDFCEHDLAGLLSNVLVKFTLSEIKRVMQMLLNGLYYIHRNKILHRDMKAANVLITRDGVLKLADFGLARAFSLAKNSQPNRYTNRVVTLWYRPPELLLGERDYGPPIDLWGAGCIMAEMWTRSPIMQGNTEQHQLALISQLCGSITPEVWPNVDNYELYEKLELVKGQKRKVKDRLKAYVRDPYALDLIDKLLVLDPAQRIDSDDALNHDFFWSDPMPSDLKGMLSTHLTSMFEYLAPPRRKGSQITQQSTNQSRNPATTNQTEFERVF
T1 sequence (O60563 whole entry partner): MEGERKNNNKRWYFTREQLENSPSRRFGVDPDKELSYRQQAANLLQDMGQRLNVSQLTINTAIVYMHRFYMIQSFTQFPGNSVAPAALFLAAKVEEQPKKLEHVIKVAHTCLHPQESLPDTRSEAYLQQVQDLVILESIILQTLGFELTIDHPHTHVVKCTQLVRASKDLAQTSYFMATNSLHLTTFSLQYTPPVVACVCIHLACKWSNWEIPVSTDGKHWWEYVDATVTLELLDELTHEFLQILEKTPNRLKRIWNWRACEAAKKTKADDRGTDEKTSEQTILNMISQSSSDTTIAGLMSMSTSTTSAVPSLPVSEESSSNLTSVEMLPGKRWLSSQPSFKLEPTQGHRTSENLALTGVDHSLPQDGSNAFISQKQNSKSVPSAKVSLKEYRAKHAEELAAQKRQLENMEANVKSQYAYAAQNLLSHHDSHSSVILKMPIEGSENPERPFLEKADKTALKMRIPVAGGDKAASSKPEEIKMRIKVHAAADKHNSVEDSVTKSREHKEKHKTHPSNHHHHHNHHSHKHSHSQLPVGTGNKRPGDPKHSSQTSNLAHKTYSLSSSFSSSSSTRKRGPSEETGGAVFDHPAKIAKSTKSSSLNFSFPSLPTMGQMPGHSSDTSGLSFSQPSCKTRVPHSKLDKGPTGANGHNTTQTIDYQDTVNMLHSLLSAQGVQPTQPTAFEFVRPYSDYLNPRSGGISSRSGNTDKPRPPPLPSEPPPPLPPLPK
Description: (§1) Lanthascreen experiments were performed using commercially available reagents (Thermo Fisher) and according to the manufacturer’s instructions.

CDK12–cyclin K = CDK12–cyclin K (Homo sapiens, UniProt Q9NYV4); test: Lanthascreen kinase binding assay, CDK12; settings: for Lanthascreen raw signal, sheet CDK12: series r1, duplicates
Chain of CDK12–cyclin K (Q9NYV4 713-1052): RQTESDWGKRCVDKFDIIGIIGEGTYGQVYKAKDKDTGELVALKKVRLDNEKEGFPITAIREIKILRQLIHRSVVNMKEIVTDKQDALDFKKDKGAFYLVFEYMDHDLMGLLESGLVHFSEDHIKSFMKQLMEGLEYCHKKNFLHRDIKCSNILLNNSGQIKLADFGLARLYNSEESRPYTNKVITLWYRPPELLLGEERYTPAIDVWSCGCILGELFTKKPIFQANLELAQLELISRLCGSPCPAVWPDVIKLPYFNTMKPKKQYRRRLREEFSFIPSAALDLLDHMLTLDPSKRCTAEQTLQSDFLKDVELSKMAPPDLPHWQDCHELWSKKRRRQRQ
Chain of CDK12–cyclin K (O75909 1-267 partner limits assumed): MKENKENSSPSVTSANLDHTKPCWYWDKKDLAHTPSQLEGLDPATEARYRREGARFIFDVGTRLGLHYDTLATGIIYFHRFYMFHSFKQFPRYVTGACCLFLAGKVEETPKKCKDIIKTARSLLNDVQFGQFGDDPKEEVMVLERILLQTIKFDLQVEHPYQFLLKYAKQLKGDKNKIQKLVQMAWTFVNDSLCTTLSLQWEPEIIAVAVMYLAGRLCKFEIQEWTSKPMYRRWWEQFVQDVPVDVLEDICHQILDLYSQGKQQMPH
Description: as §1

[1] = tested on: cyclin K–eGFP degradation reporter; test: Cyclin K reporter stability analysis (dual-color cyclin K–eGFP reporter); assay type: cell-based, human; settings: source data sheet correlations
Procedure, shortened: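 A 5 h treatment of HEK293T–Cas9 cells expressing the degradation reporter preceded flow cytometry; eGFP over mCherry, normalized to DMSO.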

HEK293T cells = test: Drug sensitivity assay (CellTiter-Glo viability) with or without MLN4924 pretreatment; assay type: cell-based, human; settings: Supplementary Table 2
Procedure, shortened: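 First, cells (HEK293T–Cas9, 0.15 × 10^6 ml^−1) are exposed to DMSO or 100 nM MLN4924. Next, drugs follow at 2 h. Finally, CellTiter-Glo is read at day 3 and normalised to DMSO.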

CDK2–cyclin A = target: T2, CDK2–cyclin A (Homo sapiens, UniProt P24941); test: Lanthascreen kinase binding assay, CDK2; settings: for Lanthascreen signal, sheet CDK2: raw replicates, experiment r1-r11
T2 construct: purchased Thermo Fisher
Description: as §1

CDK12–cyclin K and DDB1 = target: T3, CDK12–cyclin K and DDB1 (Homo sapiens, UniProt Q16531+Q9NYV4, K965R); test: TR-FRET ternary complex formation assay (compound titration); assay type: binding
T3 construct: His6–CDK12 (a.a. 713–1,052); full-length or beta-propeller B domain deletion (ΔBPB: a.a. 396–705 deleted) constructs of His6–DDB1ΔBPB, StrepII–Avi–DDB1, or His6–Spy–DDB1; made in house; host or cells: Trichoplusia ni High Five insect cells (baculovirus)
T3 sequence (Q9NYV4 713-1052 K965R): as the sequence (Q9NYV4 713-1052) above, with K253R counted along it
T3 sequence (O75909 1-267 partner): as the sequence (O75909 1-267 partner limits assumed) above
T3 sequence (Q16531 whole entry): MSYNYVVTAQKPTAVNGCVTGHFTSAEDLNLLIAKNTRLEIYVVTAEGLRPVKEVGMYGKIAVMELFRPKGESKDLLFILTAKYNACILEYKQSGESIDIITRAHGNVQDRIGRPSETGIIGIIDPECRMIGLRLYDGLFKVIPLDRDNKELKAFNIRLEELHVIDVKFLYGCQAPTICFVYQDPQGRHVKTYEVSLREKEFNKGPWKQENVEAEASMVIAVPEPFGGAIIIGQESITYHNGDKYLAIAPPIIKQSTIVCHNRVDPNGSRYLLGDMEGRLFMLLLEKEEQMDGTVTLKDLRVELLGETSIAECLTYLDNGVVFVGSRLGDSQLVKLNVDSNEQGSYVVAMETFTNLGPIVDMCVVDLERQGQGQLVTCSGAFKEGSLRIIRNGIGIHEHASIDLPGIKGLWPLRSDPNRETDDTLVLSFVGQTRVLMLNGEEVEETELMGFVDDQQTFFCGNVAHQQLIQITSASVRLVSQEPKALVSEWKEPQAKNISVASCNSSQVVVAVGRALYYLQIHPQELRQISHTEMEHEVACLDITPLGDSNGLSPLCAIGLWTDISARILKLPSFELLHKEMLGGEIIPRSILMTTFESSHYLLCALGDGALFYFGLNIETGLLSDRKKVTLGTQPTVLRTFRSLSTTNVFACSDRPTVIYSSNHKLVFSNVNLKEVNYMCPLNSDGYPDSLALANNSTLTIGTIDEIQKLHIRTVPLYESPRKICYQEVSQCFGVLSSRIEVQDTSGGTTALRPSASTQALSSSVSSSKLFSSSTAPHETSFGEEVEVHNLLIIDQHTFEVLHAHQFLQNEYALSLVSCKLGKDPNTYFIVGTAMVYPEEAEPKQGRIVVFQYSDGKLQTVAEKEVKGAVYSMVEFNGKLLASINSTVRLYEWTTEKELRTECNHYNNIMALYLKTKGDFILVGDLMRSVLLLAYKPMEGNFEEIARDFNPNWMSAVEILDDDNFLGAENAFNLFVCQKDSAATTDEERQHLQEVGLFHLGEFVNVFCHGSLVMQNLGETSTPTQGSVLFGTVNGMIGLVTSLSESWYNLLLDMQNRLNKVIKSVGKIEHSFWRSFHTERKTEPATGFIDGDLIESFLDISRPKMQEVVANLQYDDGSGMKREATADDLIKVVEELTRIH
Procedure, shortened: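 Background fluorescence is reduced by reading 70 μs after excitation, and complex formation is followed as the 520:490 nm fluorescence ratio.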

For `CN1CCN(c2nc(NCc3nc4c(F)c(F)ccc4[nH]3)n3ncc(Br)c3n2)CC1` [DS71], the IC50 (CDK9–cyclin T; Supplementary Table 2, read-out: Lanthascreen IC50 [nM] CDK9) was 684 nM, the “Lanthascreen TR-FRET signal (raw ratio), sheet CDK9” value (CDK9–cyclin T; compound 1.02544 nM) was 0.01471 and 0.01339 and the “Lanthascreen TR-FRET signal (raw ratio), sheet CDK9” value (CDK9–cyclin T; compound 3.15521 nM) was 0.01367 and 0.0125. For the same compound, the “Lanthascreen TR-FRET signal (raw ratio), sheet CDK9” value (CDK9–cyclin T; compound 9.46563 nM) was 0.01267 and 0.01475, the “Lanthascreen TR-FRET signal (raw ratio), sheet CDK9” value (CDK9–cyclin T; compound 31.5521 nM) was 0.01209 and 0.01181 and the “Lanthascreen TR-FRET signal (raw ratio), sheet CDK9” value (CDK9–cyclin T; compound 99.3891 nM) was 0.01168 and 0.01283. For the same compound, the “Lanthascreen TR-FRET signal (raw ratio), sheet CDK9” value (CDK9–cyclin T; compound 315.521 nM) was 0.01175 and 0.01042, the “Lanthascreen TR-FRET signal (raw ratio), sheet CDK9” value (CDK9–cyclin T; compound 3155.21 nM) was 0.005807 and 0.004691 and the “Lanthascreen TR-FRET signal (raw ratio), sheet CDK9” value (CDK9–cyclin T; compound 10002 nM) was 0.004107 and 0.003744. The IC50 (CDK12–cyclin K; Supplementary Table 2, read-out: Lanthascreen IC50 [nM] CDK12) was 134 nM, the “Lanthascreen raw signal, sheet CDK12” value (CDK12–cyclin K; compound 1.02544 nM) was 0.006087 and 0.009032 and the “Lanthascreen raw signal, sheet CDK12” value (CDK12–cyclin K; compound 3.15521 nM) was 0.01061 and 0.007755. The “Lanthascreen raw signal, sheet CDK12” value (CDK12–cyclin K; compound 9.46563 nM) was 0.009135 and 0.006327, the “Lanthascreen raw signal, sheet CDK12” value (CDK12–cyclin K; compound 31.5521 nM) was 0.007705 and 0.007896 and the “Lanthascreen raw signal, sheet CDK12” value (CDK12–cyclin K; compound 99.3891 nM) was 0.007199 and 0.007003. The “Lanthascreen raw signal, sheet CDK12” value (CDK12–cyclin K; compound 315.521 nM) was 0.006511 and 0.005836, the “Lanthascreen raw signal, sheet CDK12” value (CDK12–cyclin K; compound 3155.21 nM) was 0.006388 and 0.004562 and the “Lanthascreen raw signal, sheet CDK12” value (CDK12–cyclin K; compound 10002 nM) was 0.005868 and 0.005096. For the same compound, the DC50 ([1]; log value) was 4 nM, the DC50 ([1]; read-out: DC50) was 4 nM and the EC50 (HEK293T cells; Homo sapiens, HEK-293T, HEK293T viability, 72 h, compound alone, read-out: Cellular assays EC50) was 10 nM. For the same compound, the Toxicity rescue (HEK293T cells; MLN4924-mediated cytotoxicity rescue, 10 µM used where n.d.) was 610%, the “Lanthascreen signal, sheet CDK2” value (CDK2–cyclin A; Compound 1.02544 nM) was 0.009545 and 0.009565 and the “Lanthascreen signal, sheet CDK2” value (CDK2–cyclin A; Compound 3.15521 nM) was 0.01077 and 0.01025. The “Lanthascreen signal, sheet CDK2” value (CDK2–cyclin A; Compound 9.46563 nM) was 0.009718 and 0.00939, the “Lanthascreen signal, sheet CDK2” value (CDK2–cyclin A; Compound 31.5521 nM) was 0.009822 and 0.01021 and the “Lanthascreen signal, sheet CDK2” value (CDK2–cyclin A; Compound 99.3891 nM) was 0.009696 and 0.01058. The “Lanthascreen signal, sheet CDK2” value (CDK2–cyclin A; Compound 315.521 nM) was 0.0105 and 0.00942, the “Lanthascreen signal, sheet CDK2” value (CDK2–cyclin A; Compound 3155.21 nM) was 0.01064 and 0.008324 and the “Lanthascreen signal, sheet CDK2” value (CDK2–cyclin A; Compound 10002 nM) was 0.005535 and 0.005659. For the same compound, the IC50 (CDK2–cyclin A; Lanthascreen, average, Extended Data Fig. 8, read-out: CDK2 IC50) was > 10000 nM, the IC50 (CDK2–cyclin A; Supplementary Table 2, read-out: Lanthascreen IC50 [nM] CDK2) was > 10000 nM and the “TR-FRET signal at compound concentration 0.468 nM” value (CDK12–cyclin K and DDB1; compound concentration 0.468 nM, raw replicate titration data) was 0.3328 and 0.3098. For the same compound, the “TR-FRET signal at compound concentration 2.16 nM” value (CDK12–cyclin K and DDB1; compound concentration 2.16 nM, raw replicate titration data) was 0.4001 and 0.3765, the “TR-FRET signal at compound concentration 3.6 nM” value (CDK12–cyclin K and DDB1; compound concentration 3.6 nM, raw replicate titration data) was 0.5431 and 0.4961 and the “TR-FRET signal at compound concentration 7.92001 nM” value (CDK12–cyclin K and DDB1; compound concentration 7.92001 nM, raw replicate titration data) was 0.8328 and 0.7643. For the same compound, the “TR-FRET signal at compound concentration 15.84 nM” value (CDK12–cyclin K and DDB1; compound concentration 15.84 nM, raw replicate titration data) was 1.412 and 1.246, the “TR-FRET signal at compound concentration 30.96 nM” value (CDK12–cyclin K and DDB1; compound concentration 30.96 nM, raw replicate titration data) was 2.416 and 2.183 and the “TR-FRET signal at compound concentration 62.6401 nM” value (CDK12–cyclin K and DDB1; compound concentration 62.6401 nM, raw replicate titration data) was 3.349 and 3.281. For the same compound, the “TR-FRET signal at compound concentration 125.28 nM” value (CDK12–cyclin K and DDB1; compound concentration 125.28 nM, raw replicate titration data) was 3.867 and 3.698, the “TR-FRET signal at compound concentration 244.8 nM” value (CDK12–cyclin K and DDB1; compound concentration 244.8 nM, raw replicate titration data) was 3.9597 and 3.8541 and the “TR-FRET signal at compound concentration 993.601 nM” value (CDK12–cyclin K and DDB1; compound concentration 993.601 nM, raw replicate titration data) was 3.967 and 3.873. The “TR-FRET signal at compound concentration 2001.6 nM” value (CDK12–cyclin K and DDB1; compound concentration 2001.6 nM, raw replicate titration data) was 4.005 and 3.884, the EC50 (CDK12–cyclin K and DDB1; in vitro complex formation, 50 nM CDK12–cyclin K, 100 nM DDB1, text and figures, read-out: TR-FRET EC50) was 28 ± 1 nM and the EC50 (CDK12–cyclin K and DDB1; sheet MOESM7, read-out: log TR-FRET EC50 (converted)) was 27.6 nM. It also gave an EC50 (CDK12–cyclin K and DDB1; source data sheet correlations, read-out: TR-FRET EC50) of 27.6 nM.
